According to US20090087841A1, “METHODS AND COMPOSITIONS FOR D[…] HIV-1 TO PROTEASE INHIBITORS” (Monogram Biosciences, Inc., priority 2005, published 2009):

Tested on: HIV-1 viral population of patient sample 848
Assay: Resistance test vector phenotypic drug susceptibility assay of patient sample 848
Assay type: cell-based
Details: mixed viral population in sample 848, FIG. 3
Excerpt: Patient-derived segment(s) corresponding to the HIV protease and reverse transcriptase coding regions were amplified by the reverse transcription-polymerase chain reaction method (RT-PCR) using viral RNA isolated from viral particles present in the plasma or serum of HIV-infected individuals as follows. Viral RNA was isolated from the plasma or serum using oligo-dT magnetic beads (Dynal Biotech, Oslo, Norway), followed by washing and elution of viral RNA. The RT-PCR protocol was divided into two steps. A retroviral reverse transcriptase (e.g. Moloney MuLV reverse transcriptase (Roche Molecular Systems, Inc., Branchburg, N.J.; Invitrogen, Carlsbad, Calif.), or avian myeloblastosis virus (AMV) reverse transcriptase (Roche Molecular Systems, Inc., Branchburg, N.J.), or) was used to copy viral RNA into cDNA. The cDNA was then amplified using a thermostable DNA polymerase (e.g. Taq (Roche Molecular Systems, Inc., Branchburg, N.J.), Tth (Roche Molecular Systems, Inc., Branchburg, N.J.), PRIMEZYME™ (isolated from Thermus brockianus, Biometra, Gottingen, Germany)) or a combination of thermostable polymerases as described for the performance of “long PCR” Barnes, W. M., 1994, Proc. Natl. Acad. Sci, USA 91, 2216-20) (e.g. Expand High Fidelity PCR System (Taq+Pwo), (Boehringer Mannheim. Indianapolis, Ind.); GENEAMP XL™ PCR kit (Tth+Vent), (Roche Molecular Systems, Inc., Branchburg, N.J.); or ADVANTAGE II®, Clontech, Palo Alto, Calif.)
Resistance test vectors incorporating the “test” patient-derived segments were constructed as described in U.S. Pat. No. 5,837,464 using an amplified DNA product of 1.5 kB prepared by RT-PCR using viral RNA as a template and oligonucleotides PDS Apa, PDS Age, PDS PCR6, Apa-gen, Apa-c, Apa-f, Age-gen, Age-a, RT-ad, RT-b, RT-c, RT-f, and/or RT-g as primers, followed by digestion with ApaI and AgeI or the isoschizomer PinA1. To ensure that the plasmid DNA corresponding to the resultant fitness test vector comprises a representative sample of the HIV viral quasi-species present in the serum of a given patient, many (>250) independent E. coli transformants obtained in the construction of a given fitness test vector are pooled and used for the preparation of plasmid DNA.
A packaging expression vector encoding an amphotrophic MuLV 4070A env gene product enables production in a resistance test vector host cell of resistance test vector viral particles which can efficiently infect human target cells. Resistance test vectors encoding all HIV genes with the exception of env were used to transfect a packaging host cell (once transfected the host cell is referred to as a fitness test vector host cell). The packaging expression vector which encodes the amphotrophic MuLV 4070A env gene product is used with the resistance test vector to enable production in the resistance test vector host cell of infectious pseudotyped resistance test vector viral particles.
Drug resistance tests performed with resistance test vectors were carried out using packaging host and target host cells consisting of the human embryonic kidney cell line 293. See U.S. Pat. No. 5,837,464.
Resistance tests were carried out with resistance test vectors using two host cell types. Resistance test vector viral particles were produced by a first host cell (the resistance test vector host cell) that was prepared by transfecting a packaging host cell with the resistance test vector and the packaging expression vector. The resistance test vector viral particles were then used to infect a second host cell (the target host cell) in which the expression of the indicator gene is measured.
The resistance test vectors containing a functional luciferase gene cassette were constructed as described above and host cells were transfected with the resistance test vector DNA. […]

SMILES	phenotypic resistance score of the viral population
CC(C)CN(C[C@@H](O)[C@H](Cc1ccccc1)NC(=O)O[C@H]1CCOC1)S(=O)(=O)c1ccc(N)cc1 [AMP, amprenavir]	resistant
CC(C)(C)NC(=O)[C@@H]1CN(Cc2cccnc2)CCN1C[C@@H](O)C[C@@H](Cc1ccccc1)C(=O)N[C@H]1c2ccccc2C[C@H]1O [IDV, indinavir]	resistant
Cc1cccc(C)c1OCC(=O)N[C@@H](Cc1ccccc1)[C@@H](O)C[C@H](Cc1ccccc1)NC(=O)[C@H](C(C)C)N1CCCNC1=O [LPV, lopinavir]	resistant
Cc1c(O)cccc1C(=O)N[C@@H](CSc1ccccc1)[C@H](O)CN1C[C@H]2CCCC[C@H]2C[C@H]1C(=O)NC(C)(C)C [NFV, nelfinavir]	resistant
CC(C)c1nc(CN(C)C(=O)N[C@H](C(=O)N[C@@H](Cc2ccccc2)C[C@H](O)[C@H](Cc2ccccc2)NC(=O)OCc2cncs2)C(C)C)cs1 [RTV, ritonavir]	resistant
CC(C)(C)NC(=O)[C@@H]1C[C@@H]2CCCC[C@@H]2CN1C[C@@H](O)[C@H](Cc1ccccc1)NC(=O)[C@H](CC(N)=O)NC(=O)c1ccc2ccccc2n1 [SQV, saquinavir]	resistant
